The values that follow are results of earlier work, collected in patent publication US20240139197A1, “INHIBITION OF KDM5A FOR PROMOTING ANTIGEN PRESENTATION, INCREASING CD8+ T CELL INFILTRATION AND BOOSTING ANTI-TUMOR IMMUNE RESPONSE” (The Wistar Institute of Anatomy and Biology, priority 2022, published 2024).

In series [1] the target is T1, KDM5A (Homo sapiens (Human), UniProt P29375). The settings on record: biochemical assay with pre-incubation; cited from earlier work.
The target of the next series is KDM4C (Homo sapiens (Human), UniProt Q9H3R0). The settings on record: biochemical assay with pre-incubation; cited from earlier work.
Chain of KDM4C (Q9H3R0 whole entry, species assumed): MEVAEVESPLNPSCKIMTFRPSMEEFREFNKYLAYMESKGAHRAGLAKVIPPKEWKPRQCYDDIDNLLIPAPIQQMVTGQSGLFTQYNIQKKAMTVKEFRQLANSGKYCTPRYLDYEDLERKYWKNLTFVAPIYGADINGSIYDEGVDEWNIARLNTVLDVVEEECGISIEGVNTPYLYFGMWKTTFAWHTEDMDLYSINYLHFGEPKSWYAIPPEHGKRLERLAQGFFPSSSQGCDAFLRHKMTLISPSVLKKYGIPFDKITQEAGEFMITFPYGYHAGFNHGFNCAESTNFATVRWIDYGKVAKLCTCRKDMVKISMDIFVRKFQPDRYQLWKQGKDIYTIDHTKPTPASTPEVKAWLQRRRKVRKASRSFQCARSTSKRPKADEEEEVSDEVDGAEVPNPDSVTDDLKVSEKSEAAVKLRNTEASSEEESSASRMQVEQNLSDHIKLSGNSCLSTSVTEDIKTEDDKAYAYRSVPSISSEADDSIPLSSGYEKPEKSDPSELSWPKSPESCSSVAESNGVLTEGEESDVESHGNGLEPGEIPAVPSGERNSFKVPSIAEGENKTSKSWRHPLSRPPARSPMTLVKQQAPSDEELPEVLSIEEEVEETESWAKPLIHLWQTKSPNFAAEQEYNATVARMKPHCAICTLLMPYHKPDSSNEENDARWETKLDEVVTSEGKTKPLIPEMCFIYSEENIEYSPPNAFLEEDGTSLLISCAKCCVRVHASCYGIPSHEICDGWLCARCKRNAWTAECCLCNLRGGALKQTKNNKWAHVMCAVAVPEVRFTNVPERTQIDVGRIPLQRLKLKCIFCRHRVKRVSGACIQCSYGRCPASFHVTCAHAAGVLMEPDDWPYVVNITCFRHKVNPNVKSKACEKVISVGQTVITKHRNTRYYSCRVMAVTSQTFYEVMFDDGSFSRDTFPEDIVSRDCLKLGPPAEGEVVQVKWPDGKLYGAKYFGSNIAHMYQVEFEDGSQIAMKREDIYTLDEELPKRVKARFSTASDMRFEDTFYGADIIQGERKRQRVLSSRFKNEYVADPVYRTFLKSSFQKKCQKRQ
The target in series [2] is T1, KDM5A. The settings on record: KDM5A inhibitors disclosed in Miyake et al; cited from earlier work.
In a further series the target is KDM5B (Homo sapiens (Human), UniProt Q9UGL1). The settings on record: biochemical assay with pre-incubation; cited from earlier work.
Chain of KDM5B (Q9UGL1 whole entry, species assumed): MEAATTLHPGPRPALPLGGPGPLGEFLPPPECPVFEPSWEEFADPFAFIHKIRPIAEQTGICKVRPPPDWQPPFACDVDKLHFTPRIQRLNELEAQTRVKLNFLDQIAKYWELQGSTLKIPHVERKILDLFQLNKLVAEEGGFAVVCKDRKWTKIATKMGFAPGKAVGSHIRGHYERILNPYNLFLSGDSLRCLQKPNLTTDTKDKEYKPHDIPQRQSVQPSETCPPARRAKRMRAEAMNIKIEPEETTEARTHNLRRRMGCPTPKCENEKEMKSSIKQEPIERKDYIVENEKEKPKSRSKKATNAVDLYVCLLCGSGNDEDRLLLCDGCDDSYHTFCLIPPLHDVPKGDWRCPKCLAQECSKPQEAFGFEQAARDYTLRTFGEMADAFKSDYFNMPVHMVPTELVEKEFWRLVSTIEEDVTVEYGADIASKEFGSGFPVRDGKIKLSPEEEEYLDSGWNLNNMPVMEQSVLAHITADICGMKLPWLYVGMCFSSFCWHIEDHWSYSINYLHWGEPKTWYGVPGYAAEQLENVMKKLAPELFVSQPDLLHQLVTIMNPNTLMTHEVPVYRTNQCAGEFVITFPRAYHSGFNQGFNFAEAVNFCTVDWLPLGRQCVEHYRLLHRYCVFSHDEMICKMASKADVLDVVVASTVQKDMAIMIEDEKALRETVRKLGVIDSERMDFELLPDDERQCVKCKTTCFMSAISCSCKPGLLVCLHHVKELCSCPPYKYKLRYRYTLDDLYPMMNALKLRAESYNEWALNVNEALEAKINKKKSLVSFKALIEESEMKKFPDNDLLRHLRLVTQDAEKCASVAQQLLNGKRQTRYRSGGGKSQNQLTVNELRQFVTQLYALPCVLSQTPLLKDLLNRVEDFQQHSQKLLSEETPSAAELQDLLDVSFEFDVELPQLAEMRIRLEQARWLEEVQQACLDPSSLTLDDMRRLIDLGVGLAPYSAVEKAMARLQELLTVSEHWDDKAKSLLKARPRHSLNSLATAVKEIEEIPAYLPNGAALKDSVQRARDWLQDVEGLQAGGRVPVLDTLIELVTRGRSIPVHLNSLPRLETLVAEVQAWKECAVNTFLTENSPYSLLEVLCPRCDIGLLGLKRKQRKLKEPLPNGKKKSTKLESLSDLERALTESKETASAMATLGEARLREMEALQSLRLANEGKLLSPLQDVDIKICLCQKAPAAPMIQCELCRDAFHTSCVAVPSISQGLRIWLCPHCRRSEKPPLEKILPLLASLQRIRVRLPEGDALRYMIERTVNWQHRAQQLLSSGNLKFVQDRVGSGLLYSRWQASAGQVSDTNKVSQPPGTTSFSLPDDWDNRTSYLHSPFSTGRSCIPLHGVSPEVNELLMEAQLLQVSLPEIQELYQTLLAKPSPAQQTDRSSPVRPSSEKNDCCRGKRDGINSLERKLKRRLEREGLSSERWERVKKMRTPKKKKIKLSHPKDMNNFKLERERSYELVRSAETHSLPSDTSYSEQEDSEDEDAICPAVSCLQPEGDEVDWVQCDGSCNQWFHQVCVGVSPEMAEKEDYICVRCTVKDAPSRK

Like-named read-outs stand apart in the source and are kept apart here.

T1 sequence (P29375 whole entry): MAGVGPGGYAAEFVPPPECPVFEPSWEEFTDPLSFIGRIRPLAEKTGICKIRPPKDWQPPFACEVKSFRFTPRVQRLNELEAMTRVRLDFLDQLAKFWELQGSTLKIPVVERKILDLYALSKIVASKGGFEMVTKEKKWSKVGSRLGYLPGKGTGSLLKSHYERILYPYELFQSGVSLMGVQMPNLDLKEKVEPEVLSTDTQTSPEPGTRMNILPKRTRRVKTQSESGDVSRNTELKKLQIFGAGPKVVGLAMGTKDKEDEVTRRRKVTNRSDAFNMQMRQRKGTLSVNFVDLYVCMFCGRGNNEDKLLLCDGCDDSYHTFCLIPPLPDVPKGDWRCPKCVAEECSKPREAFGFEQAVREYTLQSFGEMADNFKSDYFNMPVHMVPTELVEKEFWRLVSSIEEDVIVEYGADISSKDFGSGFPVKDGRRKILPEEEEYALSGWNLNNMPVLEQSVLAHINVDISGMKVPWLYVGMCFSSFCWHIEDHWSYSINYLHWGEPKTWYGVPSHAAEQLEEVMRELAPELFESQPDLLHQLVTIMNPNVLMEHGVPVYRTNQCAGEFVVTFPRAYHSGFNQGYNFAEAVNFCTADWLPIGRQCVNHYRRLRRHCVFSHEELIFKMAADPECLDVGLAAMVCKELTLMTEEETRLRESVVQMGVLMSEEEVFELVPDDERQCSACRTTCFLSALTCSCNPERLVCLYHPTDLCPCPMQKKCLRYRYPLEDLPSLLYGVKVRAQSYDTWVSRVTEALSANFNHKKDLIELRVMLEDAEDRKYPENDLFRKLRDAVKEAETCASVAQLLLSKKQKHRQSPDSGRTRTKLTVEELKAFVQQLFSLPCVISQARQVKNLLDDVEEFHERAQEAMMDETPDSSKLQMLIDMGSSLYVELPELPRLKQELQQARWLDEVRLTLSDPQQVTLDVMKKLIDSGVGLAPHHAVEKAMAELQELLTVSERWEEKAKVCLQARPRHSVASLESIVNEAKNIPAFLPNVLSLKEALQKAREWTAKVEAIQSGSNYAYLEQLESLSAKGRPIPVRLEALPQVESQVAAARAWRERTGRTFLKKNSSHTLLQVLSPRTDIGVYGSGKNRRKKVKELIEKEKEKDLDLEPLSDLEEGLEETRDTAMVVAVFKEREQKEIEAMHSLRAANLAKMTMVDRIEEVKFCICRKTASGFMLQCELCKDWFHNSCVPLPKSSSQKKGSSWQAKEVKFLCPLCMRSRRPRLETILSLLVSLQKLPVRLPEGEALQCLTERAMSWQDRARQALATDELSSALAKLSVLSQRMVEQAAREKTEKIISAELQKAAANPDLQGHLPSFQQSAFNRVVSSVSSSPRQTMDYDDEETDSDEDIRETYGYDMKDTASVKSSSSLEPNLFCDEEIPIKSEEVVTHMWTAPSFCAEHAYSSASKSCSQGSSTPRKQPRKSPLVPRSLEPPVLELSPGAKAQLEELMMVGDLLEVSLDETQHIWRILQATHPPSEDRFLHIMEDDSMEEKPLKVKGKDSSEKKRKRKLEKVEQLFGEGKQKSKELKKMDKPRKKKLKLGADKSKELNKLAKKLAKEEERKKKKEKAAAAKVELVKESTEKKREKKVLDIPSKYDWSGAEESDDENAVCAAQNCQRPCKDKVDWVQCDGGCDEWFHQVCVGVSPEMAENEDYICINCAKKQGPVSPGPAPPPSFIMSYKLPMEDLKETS

For the compound `COc1cc(Cl)ccc1COc1ccnn1-c1cc(C(=O)O)ccn1` [Compound 34], the IC50 on KDM5A [1] was 12 nM; at KDM4C it was 38 nM.
With `CCCCCCN(C)Cc1cccc(-c2[nH]c3c(C#N)cnn3c(=O)c2C(C)C)c1` [Compound 11], at KDM5A [2], the IC50 was 65.3 ± 8.6 nM.
Consider `CCCCCCN(C)CCc1ccc(-c2[nH]c3c(C#N)cnn3c(=O)c2C(C)C)cc1` [Compound 13], for which the IC50 on KDM5A [2] was 4.37 ± 0.19 nM.
Regarding `O=C(O)c1ccnc(-n2nccc2OCc2ccc(Cl)cc2OCC2CC2)c1` [Compound 36], the IC50 at KDM4C was 280 nM.
Regarding `CCOc1cc(Cl)ccc1COc1ccnn1-c1cc(C(=O)O)ccn1` [Compound 35], the IC50 was 4 nM at KDM5B and 78 nM on KDM4C.
On to `O=C(O)c1ccnc(-n2nccc2OCc2ccc(Cl)cc2F)c1` [Compound 32], for which the IC50 on KDM5A [1] was 18 nM; at KDM5B it was 4 nM.
Take `CCCCCCN(C)Cc1cc(-c2[nH]c3c(C#N)cnn3c(=O)c2C(C)C)cs1` [Compound 12]: the IC50 on KDM5A [2] is 179 ± 12 nM.
As for `Cc1cc(Cl)ccc1COc1ccnn1-c1cc(C(=O)O)ccn1` [Compound 33], the IC50 was 13 nM at KDM5A [1], 2 nM on KDM5B and 41 nM at KDM4C.
